# In US8093273B2, “Flavanoids and isoflavanoids for the prevention and treatment of cardiovascular diseases” (Resverlogix Corp., priority 2004, dated 2012):
# Columns and labels:
# ApoA-I protein = ApoA-I protein expression in HepG2 cells (ELISA of conditioned media); assay type: cell-based, human; details: 7.5 μM
# Protocol: This study confirmed that compounds of the invention have an effect on ApoA-I protein secretion in HepG2 (liver) cells by measuring whether stimulation of transcriptional activity of the endogenous ApoA-I promoter in the HepG2 cells increased the abundance and secretion of ApoA-I protein.
# The HepG2 cell line was obtained from the ATCC and cultured in MEM media supplemented with 10% FBS (Gibco), with 1 mM sodium pyruvate, 0.1 mM MEM non-essential amino acid, 2 mM L-glutamine, 100 U/ml penicillin, 100 μg/ml streptomycin and 5 μg/ml plasmocin. Cells were maintained at 37° C. in an atmosphere of 5% CO2 Cells were grown to 85% confluency prior to initiating the experiment.
# Cells were plated and allowed to adhere overnight in a phenol red-free DMEM containing 10% of Charcoal/Dextran treated FBS (Hyclone), with 1 mM sodium pyruvate, 0.1 mM MEM non-essential amino acid, 2 mM L-glutamine, 100 U/ml penicillin, 100 μg/ml streptomycin and 5 μg/ml plasmocin. The medium was removed, and cells were washed in 1×PBS. Cells were then starved in phenol red-free DMEM (serum free) for a period of 24 hours. Cells were then mock treated (untreated, DMSO), or treated with compound of the invention diluted in phenol red-free DMEM (serum free) media at a concentration of 7.5 μM. Cells and media were harvested at 0, 6 and 24 hours following compound treatment.
# Medium was removed from cells at the desired times and applied to a solid phase capture sandwich in an ELISA assay according to manufacturer's instructions (Total human Apolipoprotein ELISA Assay-Alercheck).
# human ApoA-I promoter = experiment: ApoA-I promoter induction in Caco-2 intestinal cells (pAI.474-Luc luciferase reporter); assay type: cell-based; details: Caco-2 cells, 15 μM, 48 hours incubation, luciferase activity vs control samples
# Method in brief: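 Caco-2 cells stably carrying the human ApoA-I promoter–firefly luciferase construct (pAI.474-Luc) were starved 24 h in 0.5% FBS medium, then exposed to compound at 0 to 100 μM final for 48 h at 37° C. Luciferase activity in lysates was normalized to Bradford protein and compared with solvent-only and untreated controls.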
smiles,measurement,setting,value
"O=c1cc(-c2ccc(O)cc2)oc2ncccc12 [Example 34, 2-(4-Hydroxy-phenyl)-pyrano[2,3-b]pyridin-4-one]",ApoA-I content in the medium (ELISA),"ApoA-I protein; 6 and 24 hours, vs untreated cells and cells treated with solvent",increased significantly
same,time after addition of compound at which ApoA-I levels in the medium start to increase,"ApoA-I protein; time course 0, 6, 24 hours",~6 h
same,ApoA-I Promoter Induction,human ApoA-I promoter,increased
